# Measured values: US4016166A, “1-Nitrophenylquinazoline-2,4(1H,3H)-diones” (Hisamitsu Pharmaceutical Co., Inc., priority 1973, dated 1977)
# Where two headings read alike, the source gives them in different places.
# Legend:
# carrageenin edema = test: Anti-inflammatory effect (carrageenin edema, hind paw, rat); type: in vivo, Wistar-strain male rats; conditions: oral, 3 hours after carrageenin, read-out: anti-inflammatory effect (inhibition percentage of carrageenin edema)
# Procedure: A group of five Wistar-strain male rats (100-150 g) were orally administered with each test compound suspended in 0.5 % tragacanth-saline solution. After 30 minutes 0.5 %-1.0 % carrageenin suspended in the water for injection was injected subcutaneously to a hind paw. After 3 hours the carrageenin edema was measured by volume and the inhibition percentage was determined with respect to the results for the control animals. The inhibition percentages were shown with the notations as follows: […]
# dd-strain male mice = type: in vivo; conditions: mouse, 72 hours
# Procedure: The lethal dose was estimated from the death of animals 72 hours after administration.
# [1] = test system: acetic acid writhing syndrome; test: Analgetic effect (acetic acid writhing, mouse); type: in vivo, dd-strain male mice; conditions: oral, read-out: analgetic effect ED50 (95% C.L.)
# Source text: Each test compound suspended in 0.5 % tragacanth-saline solution was orally administered to dd-strain male mice (18-20 g). After one hour 0.6 % acetic acid solution was intraperitoneally injected in a volume of […].
# righting reflex = test: Central nervous system depressive effect (disappearance of righting reflex, mouse); type: in vivo, dd-strain male mice; conditions: ip, read-out: CNS depressive effect (dose required for disappearance of righting reflex)
# Procedure: Each test compound suspended in 0.5 % tragacanth-saline solution was injected intraperitoneally to dd-strain male mice (16-24 g). The disappearance of righting reflex was observed under noiseless circumstances. The dose required for the dissappearance of righting reflex is indicated with the following notations: […]
smiles,measurement,setting,value
CC(=O)OCCn1c(=O)c2ccccc2n(-c2cccc([N+](=O)[O-])c2)c1=O [Compound 18],inhibition in vivo at 50 mg/kg,carrageenin edema,16 to 30%
same,acute toxicity (lethal dose),dd-strain male mice; i.p.,> 1000 mg/kg
same,acute toxicity (lethal dose),dd-strain male mice; p.o.,2000 mg/kg
same,ED50,[1],1.7 mg/kg
same,minimal effective dose,righting reflex; mouse,10 to 30 mg/kg
O=c1c2ccccc2n(-c2cccc([N+](=O)[O-])c2)c(=S)n1CC(F)(F)F [Compound 26],inhibition in vivo at 50 mg/kg,carrageenin edema,< 15%
same,acute toxicity (lethal dose),dd-strain male mice; i.p.,> 1000 mg/kg
same,acute toxicity (lethal dose),dd-strain male mice; p.o.,> 2000 mg/kg
same,ED50,[1],> 100 mg/kg
same,minimal effective dose,righting reflex; mouse,> 1000 mg/kg
"CCCn1c(=O)c2ccccc2n(-c2cccc([N+](=O)[O-])c2)c1=O [Compound 4, 1-(m-nitrophenyl)-3-propylquinazoline-2,4(1H,3H)-dione]",inhibition in vivo at 10 mg/kg,carrageenin edema,< 15%
same,inhibition in vivo at 50 mg/kg,carrageenin edema,16 to 30%
same,acute toxicity (lethal dose),dd-strain male mice; i.p.,1000 mg/kg
same,acute toxicity (lethal dose),dd-strain male mice; p.o.,> 2000 mg/kg
same,ED50,[1],51 mg/kg
same,minimal effective dose,righting reflex; mouse,> 1000 mg/kg
"O=c1c2ccccc2n(-c2cccc([N+](=O)[O-])c2)c(=O)n1CC(F)(F)F [Compound 12, 1-(m-nitrophenyl)-3-(2,2,2-trifluoroethyl) quinazoline-2,4(1H, 3H)-dione]",inhibition in vivo at 10 mg/kg,carrageenin edema,16 to 30%
same,inhibition in vivo at 50 mg/kg,carrageenin edema,31 to 45%
same,acute toxicity (lethal dose),dd-strain male mice; i.p.,> 1000 mg/kg
same,acute toxicity (lethal dose),dd-strain male mice; p.o.,> 2000 mg/kg
same,ED50,[1],44 mg/kg
same,minimal effective dose,righting reflex; mouse,> 1000 mg/kg
O=c1c2ccccc2n(-c2cccc([N+](=O)[O-])c2)c(=O)n1CCF [Compound 10],inhibition in vivo at 10 mg/kg,carrageenin edema,> 61%
same,inhibition in vivo at 50 mg/kg,carrageenin edema,46 to 60%
same,acute toxicity (lethal dose),dd-strain male mice; i.p.,> 1000 mg/kg
same,acute toxicity (lethal dose),dd-strain male mice; p.o.,> 2000 mg/kg
same,ED50,[1],1.48 mg/kg
same,minimal effective dose,righting reflex; mouse,30 to 100 mg/kg
"CCCCC1C(=O)N(c2ccccc2)N(c2ccccc2)C1=O [phenylbutazone, reference compound]",minimal effective dose,righting reflex; mouse,300 to 1000 mg/kg
"Cc1ccccc1-n1c(C)nc2ccccc2c1=O [methaqualone, reference compound]",minimal effective dose,righting reflex; Mus musculus,10 to 30 mg/kg
O=c1c2ccccc2n(-c2cccc([N+](=O)[O-])c2)c(=O)n1CCCl [Compound 11],inhibition in vivo at 50 mg/kg,carrageenin edema,16 to 30%
same,acute toxicity (lethal dose),dd-strain male mice; i.p.,> 1000 mg/kg
same,acute toxicity (lethal dose),dd-strain male mice; p.o.,> 2000 mg/kg
same,ED50,[1],5.5 mg/kg
same,minimal effective dose,righting reflex; mouse,100 to 300 mg/kg
CC(C)n1c(=O)c2ccccc2n(-c2cccc([N+](=O)[O-])c2)c1=O,inhibition in vivo at 10 mg/kg,carrageenin edema,16 to 30%
same,inhibition in vivo at 50 mg/kg,carrageenin edema,46 to 60%
same,acute toxicity (lethal dose),dd-strain male mice; i.p.,> 1000 mg/kg
same,acute toxicity (lethal dose),dd-strain male mice; p.o.,> 2000 mg/kg
same,ED50,[1],2.9 mg/kg
same,minimal effective dose,righting reflex; mouse,30 to 100 mg/kg
"CCn1c(=O)c2ccccc2n(-c2cccc([N+](=O)[O-])c2)c1=O [Compound 3, 1-(m-nitrophenyl)-3-ethylquinazoline-2,4(1H, 3H)-dione]",inhibition in vivo at 10 mg/kg,carrageenin edema,> 61%
same,inhibition in vivo at 50 mg/kg,carrageenin edema,> 61%
same,acute toxicity (lethal dose),dd-strain male mice; i.p.,> 1000 mg/kg
same,acute toxicity (lethal dose),dd-strain male mice; p.o.,> 2000 mg/kg
same,ED50,[1],6 mg/kg
same,minimal effective dose,righting reflex; mouse,30 to 100 mg/kg
"CCn1c(=O)c2ccccc2n(-c2cccc(C(F)(F)F)c2)c1=O [R1=drawing 18, R2=C2 H5, reference compound]",inhibition in vivo at 10 mg/kg,carrageenin edema,< 15%
same,inhibition in vivo at 50 mg/kg,carrageenin edema,31 to 45%
same,acute toxicity (lethal dose),dd-strain male mice; i.p.,456 mg/kg
same,acute toxicity (lethal dose),dd-strain male mice; p.o.,> 4000 mg/kg
same,ED50,[1],> 100 mg/kg
same,minimal effective dose,righting reflex; mouse,> 1000 mg/kg
O=c1c2ccccc2n(-c2cccc([N+](=O)[O-])c2)c(=O)n1CCO [Compound 13],inhibition in vivo at 50 mg/kg,carrageenin edema,31 to 45%
same,acute toxicity (lethal dose),dd-strain male mice; p.o.,2000 mg/kg
same,ED50,[1],2.25 mg/kg
same,minimal effective dose,righting reflex; mouse,10 to 30 mg/kg
"O=c1c2ccccc2n(-c2cccc(C(F)(F)F)c2)c(=O)n1CCO [R1=drawing 18, R2=CH2 CH2 OH, reference compound]",inhibition in vivo at 10 mg/kg,carrageenin edema,< 15%
same,inhibition in vivo at 50 mg/kg,carrageenin edema,31 to 45%
same,acute toxicity (lethal dose),dd-strain male mice; i.p.,200 mg/kg
same,acute toxicity (lethal dose),dd-strain male mice; p.o.,970 mg/kg
same,ED50,[1],35 mg/kg
same,minimal effective dose,righting reflex; mouse,30 to 100 mg/kg
"CCn1c(=O)c2ccccc2n(-c2cccc([N+](=O)[O-])c2)c1=S [Compound 24, 1-(m-nitrophenyl)-3-ethyl-2-thio-4-oxo-1,2,3,4-tetrahydroquinazoline]",inhibition in vivo at 10 mg/kg,carrageenin edema,31 to 45%
same,inhibition in vivo at 50 mg/kg,carrageenin edema,46 to 60%
same,acute toxicity (lethal dose),dd-strain male mice; i.p.,> 1000 mg/kg
same,ED50,[1],3.4 mg/kg
same,minimal effective dose,righting reflex; mouse,300 to 1000 mg/kg
"Cn1c(=O)c2ccccc2n(-c2cccc([N+](=O)[O-])c2)c1=O [Compound 2, 1-(m-nitrophenyl)-3-methylquinazoline-2,4(1H, 3H)-dione]",inhibition in vivo at 10 mg/kg,carrageenin edema,31 to 45%
same,inhibition in vivo at 50 mg/kg,carrageenin edema,46 to 60%
same,acute toxicity (lethal dose),dd-strain male mice; i.p.,> 1000 mg/kg
same,acute toxicity (lethal dose),dd-strain male mice; p.o.,> 2000 mg/kg
same,ED50,[1],12.5 mg/kg
same,minimal effective dose,righting reflex; mouse,100 to 300 mg/kg
"O=C(O)c1ccccc1Nc1cccc(C(F)(F)F)c1 [flufenamic acid, reference compound]",minimal effective dose,righting reflex; mouse,> 1000 mg/kg
Cn1c(=O)c2ccccc2n(-c2cccc([N+](=O)[O-])c2)c1=S [Compound 23],inhibition in vivo at 10 mg/kg,carrageenin edema,< 15%
same,inhibition in vivo at 50 mg/kg,carrageenin edema,16 to 30%
same,acute toxicity (lethal dose),dd-strain male mice; i.p.,> 1000 mg/kg
same,ED50,[1],> 100 mg/kg
same,minimal effective dose,righting reflex; mouse,> 1000 mg/kg
C#CCn1c(=O)c2ccccc2n(-c2cccc([N+](=O)[O-])c2)c1=O,inhibition in vivo at 10 mg/kg,carrageenin edema,< 15%
same,inhibition in vivo at 50 mg/kg,carrageenin edema,31 to 45%
same,acute toxicity (lethal dose),dd-strain male mice; i.p.,> 1000 mg/kg
same,acute toxicity (lethal dose),dd-strain male mice; p.o.,> 2000 mg/kg
same,ED50,[1],40 mg/kg
same,minimal effective dose,righting reflex; mouse,> 1000 mg/kg
"CCOCCn1c(=O)c2ccccc2n(-c2cccc([N+](=O)[O-])c2)c1=O [Compound 16, 1-(m-nitrophenyl)-3-(2-ethoxyethyl)quinazoline-2,4(1H, 3H)-dione]",inhibition in vivo at 50 mg/kg,carrageenin edema,16 to 30%
same,acute toxicity (lethal dose),dd-strain male mice; i.p.,> 1000 mg/kg
same,acute toxicity (lethal dose),dd-strain male mice; p.o.,> 2000 mg/kg
same,ED50,[1],2.15 mg/kg
same,minimal effective dose,righting reflex; mouse,30 to 100 mg/kg
"C=CCn1c(=O)c2ccccc2n(-c2cccc([N+](=O)[O-])c2)c1=O [Compound 6, 1-(m-nitrophenyl)-3-allylquinazoline-2,4(1H, 3H)-dione]",inhibition in vivo at 10 mg/kg,carrageenin edema,16 to 30%
same,inhibition in vivo at 50 mg/kg,carrageenin edema,31 to 45%
same,acute toxicity (lethal dose),dd-strain male mice; i.p.,> 1000 mg/kg
same,acute toxicity (lethal dose),dd-strain male mice; p.o.,2000 mg/kg
same,ED50,[1],> 100 mg/kg
same,minimal effective dose,righting reflex; mouse,> 1000 mg/kg
O=c1c2ccccc2n(-c2cccc([N+](=O)[O-])c2)c(=O)n1CCOCCO [Compound 17],inhibition in vivo at 50 mg/kg,carrageenin edema,16 to 30%
same,acute toxicity (lethal dose),dd-strain male mice; i.p.,1000 mg/kg
same,acute toxicity (lethal dose),dd-strain male mice; p.o.,2000 mg/kg
same,ED50,[1],3.7 mg/kg
same,minimal effective dose,righting reflex; mouse,30 to 100 mg/kg
O=c1c2ccccc2n(-c2cccc([N+](=O)[O-])c2)c(=O)n1CC1CC1,inhibition in vivo at 10 mg/kg,carrageenin edema,31 to 45%
same,inhibition in vivo at 50 mg/kg,carrageenin edema,46 to 60%
same,acute toxicity (lethal dose),dd-strain male mice; i.p.,1000 mg/kg
same,minimal effective dose,righting reflex; mouse,100 to 300 mg/kg
